Assay results: paper PMC7422722, “The complete functional characterisation of the terpene synthase family in tomato” (The New Phytologist, 2020)

Key:
Type in all cases: biochemical
TPS47 = target: T1, TPS47 (Solanum lycopersicum, UniProt K4BEJ5); assay: in vitro assay, headspace SPME GC-MS; conditions: product isoprene; 42 °C headspace collection
T1 construct: gene LOC101258440; recombinant, E. coli (codon-optimised gene made), His-tagged, purified; full length 562 residues; gene on chromosome 3
T1 sequence (K4BEJ5 1-562): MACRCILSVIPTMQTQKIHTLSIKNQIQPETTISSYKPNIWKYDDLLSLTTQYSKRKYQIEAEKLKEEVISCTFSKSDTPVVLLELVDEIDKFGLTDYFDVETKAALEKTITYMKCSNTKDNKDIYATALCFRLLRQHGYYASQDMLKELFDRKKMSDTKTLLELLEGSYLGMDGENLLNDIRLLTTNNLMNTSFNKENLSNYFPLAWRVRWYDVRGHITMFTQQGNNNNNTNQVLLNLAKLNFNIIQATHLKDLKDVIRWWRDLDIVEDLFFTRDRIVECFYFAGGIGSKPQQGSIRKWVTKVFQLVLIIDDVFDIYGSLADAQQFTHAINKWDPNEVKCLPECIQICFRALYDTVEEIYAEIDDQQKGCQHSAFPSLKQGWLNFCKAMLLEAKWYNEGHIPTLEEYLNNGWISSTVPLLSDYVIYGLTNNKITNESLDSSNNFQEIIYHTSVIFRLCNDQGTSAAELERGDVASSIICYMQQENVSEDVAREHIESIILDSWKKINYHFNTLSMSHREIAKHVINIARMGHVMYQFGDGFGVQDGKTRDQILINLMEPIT

GGPPS1 = target: T2, GGPPS1 (Solanum lycopersicum, UniProt Q1A7T0); assay: in vitro prenyltransferase assay, products hydrolysed, GC-MS; conditions: co-substrate IPP; without SSU
T2 construct: gene GGPS1
T2 sequence (Q1A7T0 60-365): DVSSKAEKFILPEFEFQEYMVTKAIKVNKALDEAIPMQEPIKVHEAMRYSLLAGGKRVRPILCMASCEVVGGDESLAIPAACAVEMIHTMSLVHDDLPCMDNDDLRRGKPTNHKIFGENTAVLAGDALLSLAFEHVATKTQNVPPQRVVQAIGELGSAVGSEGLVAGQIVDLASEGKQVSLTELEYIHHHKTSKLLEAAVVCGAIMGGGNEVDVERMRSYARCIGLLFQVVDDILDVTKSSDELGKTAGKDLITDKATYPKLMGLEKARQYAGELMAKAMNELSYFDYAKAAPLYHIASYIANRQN

GGPPS2 = target: T3, GGPPS2 (Solanum lycopersicum, UniProt Q1A7S9); assay: as above; conditions: co-substrate IPP; without SSU
T3 construct: gene GGPS2
T3 sequence (Q1A7S9 57-363): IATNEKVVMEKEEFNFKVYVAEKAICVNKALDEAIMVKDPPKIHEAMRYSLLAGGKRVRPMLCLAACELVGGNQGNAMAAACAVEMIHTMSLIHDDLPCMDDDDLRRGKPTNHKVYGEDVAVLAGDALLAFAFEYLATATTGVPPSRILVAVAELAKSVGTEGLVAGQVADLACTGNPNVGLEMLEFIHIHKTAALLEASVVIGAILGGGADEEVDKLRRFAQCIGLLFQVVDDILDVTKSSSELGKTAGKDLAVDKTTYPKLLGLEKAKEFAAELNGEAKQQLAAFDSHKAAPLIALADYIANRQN

TPS51 = target: T4, TPS51 (Solanum lycopersicum, UniProt A0A6H0JLJ2); assay: in vitro assay, GC-MS of products
T4 construct: recombinant, E. coli (codon-optimised gene made), His-tagged, purified; full length 550 residues; gene on chromosome 7
T4 sequence (A0A6H0JLJ2 1-550): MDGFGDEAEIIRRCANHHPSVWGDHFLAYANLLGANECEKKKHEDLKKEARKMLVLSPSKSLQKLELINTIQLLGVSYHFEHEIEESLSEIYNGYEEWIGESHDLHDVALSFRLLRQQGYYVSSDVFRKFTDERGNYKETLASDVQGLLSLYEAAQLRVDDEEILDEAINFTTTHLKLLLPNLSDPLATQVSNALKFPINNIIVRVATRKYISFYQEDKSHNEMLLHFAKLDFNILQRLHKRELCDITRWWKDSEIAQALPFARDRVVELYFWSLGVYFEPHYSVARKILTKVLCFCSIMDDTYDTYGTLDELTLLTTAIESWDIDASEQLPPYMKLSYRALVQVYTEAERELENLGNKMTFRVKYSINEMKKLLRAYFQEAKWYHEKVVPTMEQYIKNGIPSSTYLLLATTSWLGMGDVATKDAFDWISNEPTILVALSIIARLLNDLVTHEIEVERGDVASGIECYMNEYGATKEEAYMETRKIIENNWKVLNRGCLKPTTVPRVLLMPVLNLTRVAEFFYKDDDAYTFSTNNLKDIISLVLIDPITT

TPS52 = target: T5, TPS52 (Solanum lycopersicum, UniProt A0A6H0JLZ2); assay: in vitro assay, GC-MS of products
T5 construct: recombinant, E. coli (codon-optimised gene made), His-tagged, purified; full length 551 residues; gene on chromosome 7
T5 sequence (A0A6H0JLZ2 1-551): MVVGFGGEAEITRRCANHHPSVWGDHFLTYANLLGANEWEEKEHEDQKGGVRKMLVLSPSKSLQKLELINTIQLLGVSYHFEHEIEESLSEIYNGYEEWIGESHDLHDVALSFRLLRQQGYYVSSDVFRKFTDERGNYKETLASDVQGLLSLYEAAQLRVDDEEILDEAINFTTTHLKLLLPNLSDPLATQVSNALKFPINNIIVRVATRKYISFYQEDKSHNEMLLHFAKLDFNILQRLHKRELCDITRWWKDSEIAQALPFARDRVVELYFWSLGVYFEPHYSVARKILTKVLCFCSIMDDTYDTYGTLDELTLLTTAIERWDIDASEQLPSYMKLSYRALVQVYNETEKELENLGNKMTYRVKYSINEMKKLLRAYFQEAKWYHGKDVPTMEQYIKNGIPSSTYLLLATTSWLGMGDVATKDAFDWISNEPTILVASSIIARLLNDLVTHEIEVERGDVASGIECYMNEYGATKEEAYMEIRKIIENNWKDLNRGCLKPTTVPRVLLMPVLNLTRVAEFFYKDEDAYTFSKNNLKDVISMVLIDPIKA

TPS27 = target: T6, TPS27 (Solanum lycopersicum, UniProt G5CV48); assay: in vitro assay, GC-MS of products; conditions: product alpha-farnesene
T6 construct: recombinant, E. coli pET32b or pET28a, His-tagged, purified
T6 sequence (G5CV48 1-554): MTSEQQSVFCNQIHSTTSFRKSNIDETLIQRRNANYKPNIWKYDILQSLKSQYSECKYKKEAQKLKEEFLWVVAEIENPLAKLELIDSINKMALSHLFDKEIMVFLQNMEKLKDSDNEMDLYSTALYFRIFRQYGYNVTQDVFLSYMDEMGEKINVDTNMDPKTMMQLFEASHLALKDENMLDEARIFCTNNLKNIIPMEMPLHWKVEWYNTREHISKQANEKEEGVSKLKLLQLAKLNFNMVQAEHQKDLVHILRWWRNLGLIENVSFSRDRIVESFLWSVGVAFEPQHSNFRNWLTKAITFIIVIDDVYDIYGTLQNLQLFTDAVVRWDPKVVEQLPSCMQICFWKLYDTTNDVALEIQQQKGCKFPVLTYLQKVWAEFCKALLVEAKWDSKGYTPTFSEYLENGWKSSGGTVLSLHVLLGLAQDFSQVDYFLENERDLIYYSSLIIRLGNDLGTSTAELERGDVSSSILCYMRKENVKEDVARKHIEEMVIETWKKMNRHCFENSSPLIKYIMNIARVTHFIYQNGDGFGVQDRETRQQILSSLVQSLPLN

TPS25 = target: T7, TPS25 (Solanum lycopersicum, UniProt G5CV49); assay: in vitro assay, GC-MS of products; conditions: product mostly beta-ocimene
T7 construct: recombinant, E. coli pET32b or pET28a, His-tagged, purified
T7 sequence (G5CV49 1-576): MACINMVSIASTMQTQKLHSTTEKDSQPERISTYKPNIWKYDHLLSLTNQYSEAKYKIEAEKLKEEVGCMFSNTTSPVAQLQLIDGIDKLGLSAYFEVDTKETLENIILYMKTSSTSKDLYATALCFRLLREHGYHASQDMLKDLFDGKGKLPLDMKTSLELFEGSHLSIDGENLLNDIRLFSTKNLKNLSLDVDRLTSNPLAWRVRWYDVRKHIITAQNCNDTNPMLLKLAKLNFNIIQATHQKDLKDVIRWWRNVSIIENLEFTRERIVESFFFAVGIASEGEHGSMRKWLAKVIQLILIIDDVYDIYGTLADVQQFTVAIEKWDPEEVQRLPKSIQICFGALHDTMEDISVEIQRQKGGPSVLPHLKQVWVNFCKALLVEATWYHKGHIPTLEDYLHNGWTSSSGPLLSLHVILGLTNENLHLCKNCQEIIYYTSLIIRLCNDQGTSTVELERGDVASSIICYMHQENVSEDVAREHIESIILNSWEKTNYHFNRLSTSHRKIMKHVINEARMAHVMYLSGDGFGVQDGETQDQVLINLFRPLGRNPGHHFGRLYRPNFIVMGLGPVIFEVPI

TPS36 = target: T8, TPS36 (Solanum lycopersicum, UniProt G5CV42); assay: in vitro assay, GC-MS of products; conditions: product mostly cis-muurola-3,5-diene
T8 construct: recombinant, E. coli pET32b or pET28a, His-tagged, purified, putative transit peptide removed (mitochondrial enzyme)
T8 sequence (G5CV42 entry or part of it): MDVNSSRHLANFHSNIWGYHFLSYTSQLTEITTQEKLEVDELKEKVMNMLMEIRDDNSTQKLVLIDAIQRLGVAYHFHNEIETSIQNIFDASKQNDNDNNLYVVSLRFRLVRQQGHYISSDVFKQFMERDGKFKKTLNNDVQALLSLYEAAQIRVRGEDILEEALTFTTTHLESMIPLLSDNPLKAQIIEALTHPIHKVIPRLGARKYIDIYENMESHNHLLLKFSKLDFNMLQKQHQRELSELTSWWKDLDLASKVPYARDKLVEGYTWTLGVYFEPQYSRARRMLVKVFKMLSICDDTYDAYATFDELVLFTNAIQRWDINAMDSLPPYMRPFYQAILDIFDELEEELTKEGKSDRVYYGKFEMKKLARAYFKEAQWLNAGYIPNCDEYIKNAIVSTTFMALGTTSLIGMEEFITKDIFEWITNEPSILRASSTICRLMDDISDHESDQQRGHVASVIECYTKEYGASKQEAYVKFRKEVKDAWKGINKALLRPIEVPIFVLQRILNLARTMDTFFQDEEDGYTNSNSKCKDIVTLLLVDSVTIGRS

TPS35 = target: T9, TPS35 (Solanum lycopersicum, UniProt G5CV43); assay: in vitro assay, GC-MS of products; conditions: product predominantly Z,Z-farnesol
T9 construct: recombinant, E. coli pET32b or pET28a, His-tagged, purified
T9 sequence (G5CV43 1-556): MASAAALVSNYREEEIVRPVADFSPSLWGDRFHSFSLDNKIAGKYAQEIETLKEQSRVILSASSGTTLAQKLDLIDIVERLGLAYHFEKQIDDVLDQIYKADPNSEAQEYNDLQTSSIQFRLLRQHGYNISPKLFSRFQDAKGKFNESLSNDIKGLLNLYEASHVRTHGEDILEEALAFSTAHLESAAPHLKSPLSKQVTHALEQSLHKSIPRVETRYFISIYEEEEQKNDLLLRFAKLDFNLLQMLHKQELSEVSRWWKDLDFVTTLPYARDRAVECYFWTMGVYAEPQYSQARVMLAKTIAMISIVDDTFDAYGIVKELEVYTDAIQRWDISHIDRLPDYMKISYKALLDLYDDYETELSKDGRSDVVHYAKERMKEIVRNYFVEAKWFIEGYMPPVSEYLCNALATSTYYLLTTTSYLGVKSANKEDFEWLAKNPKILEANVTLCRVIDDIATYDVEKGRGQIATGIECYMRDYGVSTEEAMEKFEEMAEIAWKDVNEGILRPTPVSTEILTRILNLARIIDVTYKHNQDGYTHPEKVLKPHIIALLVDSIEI

TPS33 = target: T10, TPS33 (Solanum lycopersicum, UniProt G5CV44); assay: in vitro assay, GC-MS of products; conditions: several sesquiterpene products
T10 construct: recombinant, E. coli pET32b or pET28a, His-tagged, purified
T10 sequence (G5CV44 1-552): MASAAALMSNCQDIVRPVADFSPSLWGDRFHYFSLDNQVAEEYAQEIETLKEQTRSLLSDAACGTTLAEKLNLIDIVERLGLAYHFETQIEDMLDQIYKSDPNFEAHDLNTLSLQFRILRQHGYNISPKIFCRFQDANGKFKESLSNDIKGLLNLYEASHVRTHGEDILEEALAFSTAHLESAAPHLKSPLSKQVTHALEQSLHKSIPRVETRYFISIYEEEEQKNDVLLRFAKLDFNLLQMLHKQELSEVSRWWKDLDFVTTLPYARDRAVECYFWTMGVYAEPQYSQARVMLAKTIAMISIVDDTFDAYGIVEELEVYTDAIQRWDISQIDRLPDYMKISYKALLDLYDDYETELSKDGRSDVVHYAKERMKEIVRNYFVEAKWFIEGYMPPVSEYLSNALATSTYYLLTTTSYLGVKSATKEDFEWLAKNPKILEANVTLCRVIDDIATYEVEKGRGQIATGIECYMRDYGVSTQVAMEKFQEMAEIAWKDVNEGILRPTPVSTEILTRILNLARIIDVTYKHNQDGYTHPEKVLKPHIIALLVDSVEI

TPS28 = target: T11, TPS28 (Solanum lycopersicum, UniProt G5CV47); assay: in vitro assay, GC-MS of products; conditions: product unidentified sesquiterpene
T11 construct: recombinant, E. coli pET32b or pET28a, His-tagged, purified
T11 sequence (G5CV47 1-554): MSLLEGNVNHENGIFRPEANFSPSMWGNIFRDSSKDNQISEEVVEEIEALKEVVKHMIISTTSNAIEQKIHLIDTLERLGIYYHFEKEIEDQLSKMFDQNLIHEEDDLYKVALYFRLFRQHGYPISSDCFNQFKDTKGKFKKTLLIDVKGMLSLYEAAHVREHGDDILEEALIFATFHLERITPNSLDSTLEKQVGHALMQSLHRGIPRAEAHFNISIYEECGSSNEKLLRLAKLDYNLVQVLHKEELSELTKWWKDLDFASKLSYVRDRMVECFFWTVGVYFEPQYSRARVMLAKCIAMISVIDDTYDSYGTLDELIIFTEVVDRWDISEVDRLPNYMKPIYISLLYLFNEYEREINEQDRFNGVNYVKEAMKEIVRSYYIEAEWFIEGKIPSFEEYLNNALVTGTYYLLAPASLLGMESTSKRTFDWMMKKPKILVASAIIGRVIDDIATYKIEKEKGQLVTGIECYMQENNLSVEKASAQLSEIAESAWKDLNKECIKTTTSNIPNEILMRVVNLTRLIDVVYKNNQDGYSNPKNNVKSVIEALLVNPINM

Structure (SMILES): CC(C)=CCOP(=O)(O)OP(=O)(O)O [DMAPP]
- in vitro assay, headspace SPME GC-MS (TPS47): When tested in vitro, TPS47 catalysed the formation of isoprene from DMAPP
- in vitro prenyltransferase assay, products hydrolysed, GC-MS (GGPPS1): affinity-purified His-tagged recombinant proteins were incubated with IPP and DMAPP
- in vitro prenyltransferase assay, products hydrolysed, GC-MS (GGPPS2): affinity-purified His-tagged recombinant proteins were incubated with IPP and DMAPP

Structure (SMILES): CC(C)=CCC/C(C)=C/CC/C(C)=C/COP(=O)(O)OP(=O)(O)O [E,E-FPP]
- in vitro assay, GC-MS of products (TPS51; product mostly E-nerolidol): catalysed the formation of mostly E-nerolidol from E,E-FPP
- in vitro assay, GC-MS of products (TPS52; product mostly E-nerolidol): catalysed the formation of mostly E-nerolidol from E,E-FPP
- in vitro assay, GC-MS of products (TPS27): TPS27 had activity only with E,E-FPP to form α-farnesene

Structure (SMILES): CC(C)=CCC/C(C)=C/COP(=O)(O)OP(=O)(O)O [GPP]
- in vitro assay, GC-MS of products (TPS25): TPS25 had activity only with GPP as the substrate, producing mostly β-ocimene

Structure (SMILES): CC(C)=CCC/C(C)=C\CC/C(C)=C\COP(=O)(O)OP(=O)(O)O [Z,Z-FPP]
- in vitro assay, GC-MS of products (TPS36): TPS36 only had activity using Z,Z-FPP and produced mostly cis-muurola-3,5-diene
- in vitro assay, GC-MS of products (TPS35): while TPS35 made predominantly Z,Z-farnesol
- in vitro assay, GC-MS of products (TPS51; several sesquiterpene products): α-bisabolene, β-bisabolene and Z-β-farnesene) from Z,Z-FPP
- in vitro assay, GC-MS of products (TPS33): When assayed with Z,Z-FPP, TPS33 made several sesquiterpenes
- in vitro assay, GC-MS of products (TPS52; several sesquiterpene products): α-bisabolene, β-bisabolene and Z-β-farnesene) from Z,Z-FPP
- in vitro assay, GC-MS of products (TPS28): TPS28 and TPS48 also catalysed the formation of a major sesquiterpene from Z,Z-FPP
